Measured values reported in the supplement of paper PMC10307832.

Experiments:
Assay in all cases: relative viability (nuclei count vs DMSO), 5 days (fraction); higher = more cells survive
[1] = compound: CC(C)(C)c1cc(NC(=O)Nc2ccc(-c3cn4c(n3)sc3cc(OCCN5CCOCC5)ccc34)cc2)no1 [Quizartinib] + O=C(c1cc(Cc2n[nH]c(=O)c3ccccc23)ccc1F)N1CCN(C(=O)C2CC2)CC1 [Olaparib] (partner 8 µM)
Method in brief: (§1)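 Relative viability divides the nuclei count in treated wells by that in vehicle wells. Lung cancer cell lines were seeded in 1536-well plates, dosed by pin tool the next day, and fixed and stained after 5 days in one step with final 0.05% Triton X-100, 1% formaldehyde and 1 ug/ml Hoechst. Dosing was a single drug or a fixed anchor-drug dose plus five library-drug doses (not always all listed) in √10 steps, and values are medians of duplicate plates imaged at 4×.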

[2] = compound: COCC[n+]1c2c(n(Cc3cnccn3)c1C)C(=O)c1ccccc1C2=O [YM155] + CS(=O)(=O)N1CCN(Cc2cc3nc(-c4cccc5[nH]ncc45)nc(N4CCOCC4)c3s2)CC1 [Pictilisib] (partner 1 µM)
Method in brief: as §1

[3] = compound: COCC[n+]1c2c(n(Cc3cnccn3)c1C)C(=O)c1ccccc1C2=O [YM155] + O=C(CCCCCCC(=O)Nc1ccccc1)NO [Vorinostat] (partner 1 µM)
Method in brief: as §1

[4] = compound: CC(C)(C)c1cc(NC(=O)Nc2ccc(-c3cn4c(n3)sc3cc(OCCN5CCOCC5)ccc34)cc2)no1 [Quizartinib] + Nc1nc2[nH]cc(CCc3ccc(C(=O)N[C@@H](CCC(=O)O)C(=O)O)cc3)c2c(=O)[nH]1 [Pemetrexed] (partner 0.2 µM)
Method in brief: as §1

Cell Line | relative viability ([1]; first compound 0.001 µM) | relative viability ([1]; first compound 0.003162 µM) | relative viability ([1]; first compound 0.01 µM) | relative viability ([1]; first compound 0.1 µM) | relative viability ([2]; first compound 0.002 µM) | relative viability ([2]; first compound 0.006325 µM) | relative viability ([2]; first compound 0.02 µM) | relative viability ([2]; first compound 0.06325 µM) | relative viability ([3]; first compound 0.002 µM) | relative viability ([3]; first compound 0.006325 µM) | relative viability ([3]; first compound 0.02 µM) | relative viability ([3]; first compound 0.06325 µM) | relative viability ([4]; first compound 0.001 µM) | relative viability ([4]; first compound 0.003162 µM) | relative viability ([4]; first compound 0.01 µM) | relative viability ([4]; first compound 0.03162 µM) | relative viability ([4]; first compound 0.1 µM) | relative viability ([1]; first compound 0.03162 µM)
SK-MES-1 | 0.685 | 0.678 | 0.805 | 0.732 | 0.395 | 0.359 | 0.377 | 0.24 | 1 | 1.17 | 1.11 | 0.415 | 0.939 | 0.904 | 0.981 | 0.563 | 0.817 | –
NCI-H1975 | 0.813 | 0.77 | 0.87 | 0.791 | 0.273 | 0.268 | 0.256 | 0.224 | 0.661 | 0.667 | 0.641 | 0.442 | 0.283 | 0.306 | 0.316 | 0.295 | 0.294 | 0.784
HCC-78 | 0.732 | 0.753 | 0.899 | 0.92 | 0.206 | 0.225 | 0.2 | 0.276 | 0.469 | 0.458 | 0.429 | 0.472 | 0.915 | 0.882 | 0.968 | 0.869 | 0.917 | 0.706
H3255 | 0.516 | 0.552 | 0.565 | 0.57 | 0.483 | 0.5 | 0.477 | 0.424 | 0.729 | 0.78 | 0.776 | 0.671 | 0.531 | 0.579 | 0.546 | 0.593 | 0.586 | 0.525
NCI-H1299 | 0.949 | 0.967 | 0.987 | 0.984 | 0.653 | 0.803 | 0.845 | 0.516 | – | – | – | – | – | – | – | – | – | 0.995
NCI-H441 | 0.441 | 0.558 | 0.646 | 0.683 | 0.539 | 0.527 | 0.47 | 0.381 | 0.741 | 0.716 | 0.741 | 0.268 | 0.261 | 0.267 | 0.247 | 0.255 | 0.287 | 0.434
NCI-H1755 | 0.832 | 0.809 | 0.946 | 0.855 | 0.396 | 0.437 | 0.428 | 0.513 | 0.752 | 0.671 | 0.622 | 0.845 | 0.316 | 0.399 | 0.412 | 0.464 | 0.378 | 0.948
LCLC-97TM1 | 0.333 | 0.332 | 0.406 | 0.417 | 0.184 | 0.208 | 0.221 | 0.148 | – | 0.817 | 0.753 | 0.481 | 0.178 | 0.177 | 0.195 | 0.184 | 0.191 | 0.467
NCI-H2085 | 0.707 | 0.748 | 0.789 | 0.72 | 0.435 | 0.38 | 0.534 | 0.429 | 0.677 | 0.795 | 0.757 | 0.625 | 0.82 | 0.879 | 0.97 | 0.836 | 0.833 | 0.7
